Data taken from publication PMC8729037 (European journal of pharmacology, 2019).
Blank lines part the entries; values can stand above or below the compound they belong to.

Tests used:
[1] = system: ERK; experiment: Western blot, ERK tyrosine phosphorylation; format: cell-based, human; conditions: 100 nM NTS; for Inhibition of NTS-induced ERK tyrosine phosphorylation (in words): 5 μM DPI or 5 mM Tiron, NCI-H838, Fig. 5
[2] = system: EGFR; experiment: Western blot, EGFR tyrosine phosphorylation; format: cell-based, human; conditions: 100 nM NTS; for Inhibition of NTS-induced EGFR tyrosine phosphorylation (in words): 5 μM DPI or 5 mM Tiron, NCI-H838, Fig. 5; for Effect on NTS-induced EGFR tyrosine phosphorylation (in words): Fig. 6
[3] = system: Nox and Duox enzymes; conditions: ref Moody et al., 2018; Doroshow et al., 2012; cited from earlier work
[4] = system: HER2; experiment: Western blot, HER2 tyrosine phosphorylation; format: cell-based, human; conditions: 100 nM NTS; for Inhibition of NTS-induced HER2 tyrosine phosphorylation (in words): 5 μM DPI or 5 mM Tiron, NCI-H838, Fig. 5
[5] = system: c-Src, β-catenin, PYK-2 and the EGFR; conditions: A549 cells; ref Moody et al., 2014; cited from earlier work
[6] = molecular target: neurotensin receptor 1 (Homo sapiens, UniProt P30989); experiment: Receptor binding, inhibition of specific
[7] = system: NCI-H838 cells; experiment: MTT proliferation assay, NCI-H838 cells; conditions: lapatinib combined with SR48692, Fig. 7
[8] = system: tubulin; experiment: Western blot, total tubulin; format: cell-based, human; conditions: lapatinib; control; Fig. 6
[9] = system: EGFR; conditions: NSCLC cell lines; ref Moody et al., 2014; cited from earlier work
[10] = system: PC-3M prostate cancer cells; conditions: ref Valerie et al., 2011; cited from earlier work
[11] = system: neurotensin receptor 1; conditions: colorectal cancer; ref Wang et al., 2010; cited from earlier work

neurotensin receptor 1 (Homo sapiens, UniProt P30989), sequence (P30989 whole entry): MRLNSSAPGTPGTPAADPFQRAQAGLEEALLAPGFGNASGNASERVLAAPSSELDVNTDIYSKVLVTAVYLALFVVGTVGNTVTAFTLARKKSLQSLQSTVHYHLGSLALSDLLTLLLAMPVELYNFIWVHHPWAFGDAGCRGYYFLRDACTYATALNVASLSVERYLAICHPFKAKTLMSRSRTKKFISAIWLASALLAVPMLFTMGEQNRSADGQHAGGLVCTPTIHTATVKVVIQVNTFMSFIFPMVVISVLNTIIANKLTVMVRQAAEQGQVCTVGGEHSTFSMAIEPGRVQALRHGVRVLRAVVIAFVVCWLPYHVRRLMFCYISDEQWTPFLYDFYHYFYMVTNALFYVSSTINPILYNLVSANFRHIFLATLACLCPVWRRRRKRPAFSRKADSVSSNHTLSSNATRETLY

Compound: c1ccc2c(c1)[I+]c1ccccc1-2 [DPI, diphenylene iodonium]
Inhibition of NTS-induced ERK tyrosine phosphorylation (in words) [1]: significantly inhibited
Inhibition of NTS-induced EGFR tyrosine phosphorylation (in words) [2]: significantly inhibited
Inhibition of Nox and Duox enzymes (in words) [3]: inhibits all Nox and Duox enzymes
Inhibition of NTS-induced HER2 tyrosine phosphorylation (in words) [4]: significantly inhibited

Compound: CNC(=O)[C@H](Cc1c[nH]c2ccccc12)NC(=O)[C@@H](CC(=O)NO)CC(C)C [GM6001]
Effect on neurotensin-induced EGFR tyrosine phosphorylation (in words) [5]: blocked

IC50 [6]: > 2000 nM
Compound: COc1cc2ncnc(Nc3ccc(F)c(Cl)c3)c2cc1OCCCN1CCOCC1 [Gefitinib]

IC50 [6]: > 2000 nM
Compound: CS(=O)(=O)CCNCc1ccc(-c2ccc3ncnc(Nc4ccc(OCc5cccc(F)c5)c(Cl)c4)c3c2)o1 [Lapatinib]
Effect on NTS-induced ERK tyrosine phosphorylation (in words) ([1]; 1 or 10 μM lapatinib, Fig. 6): significantly reduced
Shift of SR48692 dose-response curve (in words) [7]: shifted the SR48692 dose-response curve to the left
Effect on NTS-induced EGFR tyrosine phosphorylation (in words) ([2]; 0.1 μM lapatinib): impaired
Effect on NTS-induced EGFR tyrosine phosphorylation (in words) ([2]; 1 or 10 μM lapatinib): significantly reduced
Effect on total tubulin (in words) [8]: no effect
Effect on NTS-induced HER2 tyrosine phosphorylation (in words) ([4]; 1 or 10 μM lapatinib, Fig. 6): significantly reduced

IC50 [6]: > 2000 nM
Compound: C[C@@H]1CN([C@H]2CC[C@](C#N)(c3ccc(F)cc3)CC2)CC[C@]1(C(=O)O)c1ccccc1 [Levocabastine]

Compound: CC(C)(C)n1nc(-c2ccc(Cl)cc2)c2c(N)ncnc21 [PP2]
Effect on neurotensin-induced EGFR tyrosine phosphorylation (in words) [5]: blocked

IC50 [6]: 160 ± 25 nM
Compound: COc1cccc(OC)c1-c1cc(C(=O)NC2(C(=O)O)C3CC4CC(C3)CC2C4)nn1-c1ccnc2cc(Cl)ccc12 (stereo not drawn) [SR48692]
Effect on neurotensin-induced EGFR tyrosine phosphorylation (in words) [9]: reduced
Sensitivity to ionizing radiation (in words) [10]: enhanced sensitivity to ionizing radiation

Compound: CCCC(=O)[O-].[Na+] [Sodium butyrate]
Neurotensin receptor 1 densities (in words) [11]: reduced

Compound: O=S(=O)(O)c1cc(O)c(O)c(S(=O)(=O)O)c1 [Tiron]
Inhibition of NTS-induced ERK tyrosine phosphorylation (in words) [1]: significantly inhibited
Effect on neurotensin-induced EGFR tyrosine phosphorylation (in words) [9]: reduced
Inhibition of NTS-induced EGFR tyrosine phosphorylation (in words) [2]: significantly inhibited
Inhibition of NTS-induced HER2 tyrosine phosphorylation (in words) [4]: significantly inhibited

Compound: COc1ccc2c(c1)CC[C@@H]1[C@@H]2CC[C@]2(C)[C@@H](NCCCCCCN3C(=O)C=CC3=O)CC[C@@H]12 [U73122]
Effect on neurotensin-induced EGFR tyrosine phosphorylation (in words) [5]: blocked
